The experiment deals with Plasmodium falciparum. The experiment is described as follows: GSK_TCMDC: Inhibition of Plasmodium falciparum 3D7 in whole erythrocytes, using parasite LDH activity as an index of growth. The note with it: Plasmodium falciparum, 3D7. It counts as functional, organism-based.

Structures are written as SMILES.

Regarding `CCC(C)(C)C1CCc2[nH]c3ccccc3c(=O)c2C1` (stereo not drawn), the XC50 was found to be 384 nM.

For `CC(Cc1ccc(OCCN2CCN(c3ccccc3)CC2)cc1)NCC(O)c1cccc(Cl)c1F` (stereo not drawn), the XC50 worked out at 873 nM. Molecule `OC(CNC1CCCCC1)Cn1c2ccc(Br)cc2c2cc(Br)ccc21` (stereo not drawn) gave an XC50 of 303 nM.

Turning to `COC(=O)/C=C/c1ccc(CC(C)NCC(O)c2cccc(Br)c2)cc1` (stereo not drawn), the XC50 is 725 nM. In turn, `O=C(CCCCCNC(=O)c1ccc(O)c(-c2ccc(Cl)c(Cl)c2)c1)NC1CCCCCC1` had an XC50 of 947 nM. For `Cc1cc(-c2ccc3c(c2)CCN(CCCOc2ccc4c(c2)CCN4C(=O)/C=C/c2ccccc2Cl)CC3)no1` the value was 1230 nM; for `Cc1cc(N(C)C2CCN(C)CC2)nc(Nc2ccc(Br)cc2)n1`, 480 nM; for `COc1cc2c(cc1CCNCCCCNCCc1cc3c(cc1OC)CCCC3)CCCC2`, 996 nM.

`CCNc1cc(C(=O)N[C@@H](Cc2ccccc2)[C@H](O)CNC2CCC(C)(C)C2)cc(N2CCCCS2(=O)=O)c1` (stereo partly drawn) had an XC50 of 138 nM. `Cc1[nH]c(C)c(-c2ccc(Oc3ccccc3)cc2)c(=O)c1Br` displayed an XC50 of 46.8 nM. On to `Cc1cc(NC(=O)c2sc3ccccc3c2O)no1`, for which the XC50 came to 809 nM. For `CCC/C=C/c1c(CNCCCNc2cc(=O)c3ccccc3[nH]2)sc(CC)c1Br` the value was 889 nM; for `CC1=C(C(=O)OCCOCc2ccccc2)C(c2ccccc2C(F)(F)F)C(C(=O)OCCOCc2ccccc2)=C(C)N1`, 532 nM; for `COc1ccc2nc3cc(Cl)ccc3c(Nc3ccc(O)c(CN4CC5CCC(CC5)C4)c3)c2c1`, 172 nM. `CCCCc1ccc(CCNCCCCCCNCCc2ccc(O)c(O)c2)cc1` displayed an XC50 of 1070 nM. `O=[N+]([O-])c1cccc(/C=N/Nc2ccnc3cc(F)ccc23)c1`: the XC50 is 910 nM. For `CCCNCc1ccc(-c2ccc(CN(CCOC)C(=O)c3cccc(C#N)c3)cc2)nc1` the value was 1230 nM; for `c1ccc(CN2CCC(NCc3cccc(-c4cncc5ccccc45)c3)CC2)cc1`, 1360 nM. For `COc1ccc2c(NN=Cc3ccccn3)ccnc2c1` the value was 374 nM. For `O=C(c1cc(C(F)(F)F)cc(C(F)(F)F)c1)N1CCC(CCN2CCC3(CC2)C(=O)NCN3c2ccccc2)CC1Cc1ccc(Cl)c(Cl)c1` (stereo not drawn) the value was 656 nM; for `Cc1cc(Cl)c(S(=O)(=O)NC2CCCC2)cc1OCC(=O)NC1CCCCC1`, 385 nM; for `O=C1C([N+](=O)[O-])=C(O)c2c(F)cccc21`, 149 nM.

`CCCCCCn1c(Sc2ccc(C#N)c([N+](=O)[O-])c2)nnc1-c1ccc(N(C)C)cc1` yielded an XC50 of 1070 nM. `CSc1nccc(-c2ccc3ccnc(N)c3c2)n1` came in with an XC50 of 925 nM. Take `Cc1ccc2c(c1[N+](=O)[O-])N=NCC2Oc1ccccc1` (stereo not drawn): the XC50 was determined as 868 nM. To `CCNc1cc(C(=O)N[C@@H](Cc2ccccc2)[C@H](O)CNCCc2ccccc2)cc(N2CCCC2=O)c1` belongs 844 nM; to `Cc1ccccc1C(O)CNc1ccnc(Nc2cccc(C#N)c2)n1` (stereo not drawn), 875 nM. `O=C(NC1CCN(c2ccc(F)cc2[N+](=O)[O-])CC1)c1cccs1` showed an XC50 of 675 nM. Regarding `O=C(NCC1CCC(C(=O)NCc2cccc(C(F)(F)F)c2)CC1)c1ccc(O)c(-c2ccc(Cl)c(Cl)c2)c1` (stereo not drawn), the XC50 was 711 nM.

For `COCC(=O)N(Cc1ccccc1-c1cccc(CNCCc2ccccc2)c1)C1CCN(Cc2ccccc2)CC1`, the XC50 came out at 1100 nM. For `Cc1c(-c2ccccc2)ccc2[nH]cc(CC#N)c12` the value was 703 nM; for `COc1cc(Br)c(NC(=O)Nc2ccc(C(F)(F)F)c(O[C@@H]3CCN(C)C3)c2)cc1OC`, 626 nM. `COc1ccc(Cn2cncc2CN(CCC(C)C)C(=O)c2ccc(Cl)nc2Cl)cc1` returned an XC50 of 1040 nM. For `O=C(NCC1CCC(C(=O)NCCc2ccc(Cl)c(Cl)c2)CC1)c1ccc(O)c(-c2ccc(Cl)c(Cl)c2)c1` (stereo not drawn), the XC50 was 895 nM. `O=C(/C=C/c1ccc(Cl)c(Cl)c1)N1CCC(CNCc2cccc3cc[nH]c23)CC1` had an XC50 of 1220 nM.

As for `O=C(Nc1cccc(C(F)(F)F)c1)c1cc([N+](=O)[O-])cc2cn[nH]c12`, the XC50 stood at 995 nM. In turn, `CCCCCOc1ccc(C=NNc2nc(O)cc(-c3ccccc3)n2)cc1` yielded an XC50 of 887 nM. Take `O=C(NCCCCN1CCN(c2cccc(Cl)c2Cl)CC1)c1ccc2c(c1)CCN(C1CCC1)CC2`: the XC50 is 747 nM.

`Nc1nc(N)c2c(ccc3c2ccn3Cc2cc3c(cc2Cl)OCO3)n1` registered an XC50 of 3.2 nM. For `Oc1ccc2[nH]cc(C3CCN(CCCNCc4ccc(-c5ccccc5)cc4)CC3)c2c1` the value was 725 nM; for `CC(=O)Nc1ccc(CN2CCC(NC(=O)c3ccc(-c4cccc(OC(C)C)c4)s3)CC2)cc1`, 1460 nM.

`COc1ccc2c(=NN=Cc3ccc(F)cc3)cc(C)[nH]c2c1`: the XC50 came out at 773 nM.

`CNCC(O)c1cc(Cl)c(Cl)cc1C` (stereo not drawn) showed an XC50 of 922 nM.

For the origin of these results see ChEMBL document CHEMBL1157539, “Thousands of chemical starting points for antimalarial lead identification” (Nature, 2010).
